Laboratory results published in publication PMC12030165, “Bioactivity of Synthesized Trifluoromethyl Thioxanthone Analogues” (Pharmaceuticals, 2025).

What was measured:
[1] = DPPH antioxidant activity assay
Experimental: To evaluate four synthesized compounds and Trolox (as a positive control), a 1 mg/mL concentration in methanol was first made from phenyl alcohol. The prepared solution was produced in concentrations of 1, 2, 3, 5, 7, 10, 20, 30, 50, and 80 µg/mL. The DPPH reagent was then diluted in 0.002% w/v methanol and combined in a […] ratio with the previously produced working concentrations. A blank solution of 100% methanol was used. All solutions were incubated at room temperature for 30 min in a dark environment. Their absorbance values were then determined using a UV-visible spectrophotometer set at a wavelength of 517 nm. The antioxidant capacity of each chemical compound fraction and Trolox were calculated using the following formula:% inhibition = ((Abs blank − Abs Sample)/Abs Blank) × 100 where:
Abs blank: Absorbance value of the control reaction containing all reagents except the synthesized compound.
Abs sample: The absorbance value of the synthesized compound [48].

[2] = set-up: method as in PMID 35200663; details: cell line not given; cited from earlier work
[3] = tested on: HeLa cells; set-up: method as in PMID 31200286; details: same cell line; read-out: IC50 against HeLa cells, positive control; cited from earlier work

Cc1c(C)c2c(c(C)c1O)CCC(C)(C(=O)O)O2 (stereo not drawn) [Trolox, reference compound]
% inhibition of DPPH radical (radical scavenging) ([1]; 1 µg/mL): 30.5 ± 2.2%
% inhibition of DPPH radical (radical scavenging) ([1]; 2 µg/mL): 23.6 ± 1.3%
% inhibition of DPPH radical (radical scavenging) ([1]; 3 µg/mL): 61.4 ± 5.3%
% inhibition of DPPH radical (radical scavenging) ([1]; 5 µg/mL): 90.7± 11.3%
% inhibition of DPPH radical (radical scavenging) ([1]; 7 µg/mL): 95.3 ± 10.7%
% inhibition of DPPH radical (radical scavenging) ([1]; 10 µg/mL): 95.9± 9.5%
% inhibition of DPPH radical (radical scavenging) ([1]; 20 µg/mL): 96.7 ± 12.5%
% inhibition of DPPH radical (radical scavenging) ([1]; 30 µg/mL): 97.2 ± 8.5%
% inhibition of DPPH radical (radical scavenging) ([1]; 50 µg/mL): 98.1± 9.2%
% inhibition of DPPH radical (radical scavenging) ([1]; 80 µg/mL): 98.9± 11.8%

C=C1C(=O)O[C@H]2/C=C(\C)CC/C=C(\C)CCC(=O)[C@]3(C)O[C@@H]3C[C@@H]12 [crassocolide N]
cytotoxicity IC50 [2]: 4.7 µg/mL

COc1cccc2c1C(=O)c1c(O)c3c(c(O)c1C2=O)C[C@@](O)(C(=O)CO)C[C@@H]3O[C@H]1C[C@H](N)[C@H](O)[C@H](C)O1 [doxorubicin]
IC50 [3]: 1100 ± 15 nM
